The values that follow come from patent publication US20240294586A1, “TENASCIN-C AUTOANTIGENIC EPITOPES IN RHEUMATOID ARTHRITIS” (Benaroya Research Institute at Virginia Mason, priority 2020, published 2024).

One experiment deals with memory CD4+ T cells. Briefly: Ex vivo detection of peptide-reactive T cells by multiplex HLA class II tetramers. In kind it is cell-based, human. The note with it: peripheral blood, RA n=9, HC n=7. The protocol: Recombinant HLA-DRB1*04:01 protein was produced by the BRI Tetramer Core (Benaroya Research Institute, Seattle, WA) as previously described (Novak et al. 1999 J Clin Inv.104:R63). Soluble HLA-DRB1*04:01 monomer was purified from insect cell culture supernatants and biotinylated at a sequence-specific site using biotin ligase (Avidity) prior to dialysis into phosphate storage buffer. The biotinylated monomer was loaded with 0.2 mg/ml of peptide by incubating at 37° C. for 72 hours in the presence of 2.5 mg/ml n-octyl-β-D-glucopyranoside and 1 mM Pefabloc SC (Sigma-Aldrich). […]
Ex vivo tetramer staining and enrichment was accomplished using previously published protocols (Rims et al. 2019 Arthritis Rheumatol. 71:518; Uchtenhagen et al. 2016 Nat Comm 7:12614). […] Samples were run on a BD LSRII flow cytometer, and data was analyzed using FlowJo software version 10. The frequency (F) of epitope-specific T cells per million memory CD4+ T cells was calculated as follows: F=(1,000,000×tetramer-positive events from enriched tube)/(100×number of memory CD4+ T cells from the “Pre” fraction). […] These served as the parent populations from which one of the four tetramer positive T-cell populations were then gated on and analyzed for surface receptor expression. […]

For experiment [1], the target named is HLA-DRB1*04:01 (Homo sapiens, UniProt P01903+P01911, A100K/A169T/F76Y/I96L/K127E/L162R/M171V/N62H/P40V/Q125Y/R42H/S133A/S149N/S66Y/V115G/V209L/W38E). The experiment can be described thus: Peptide competition binding assay to HLA-DRB1*04:01. The note with it: competition with 0.01 μM biotinylated influenza HA306-318.
The test system of experiment [2] is antibodies in sera from RA and HC subjects. Briefly: ELISA for detection of serum antibodies against peptides. In kind it is binding, human. To be noted: for antibody reactivity relative to threshold for positivity: Autoantibody Cohort 2. The protocol: ELISAs were used to detect antibodies against citrullinated peptides in sera from patients in Autoantibody Cohorts 1 and 2 (FIG. 6). Peptides used in the assay were synthesized by either GenScript or Pepceutical and are described in FIG. 12. The ELISAs were conducted as previously described (Riedl et al. 2001 Int J Colorectal Dis.16:285; Quarona et al. 2013 Cytometry Part B, Clinical cytometry 84:207). In brief, 96-well Nunc Maxisorp plates were coated with 10 μg/ml peptide in PBS, blocked with 2% BSA and incubated with sera diluted 1:100. Bound antibodies were detected with an HRP-conjugated anti-human IgG Fc monoclonal antibody (6043HRP, Stratech). A standard curve of positive sera was used to calculate relative antibody titers in arbitrary units (AU) for each sample. The CCP2 ELISA for Autoantibody Cohort 1 was performed as by the manufacturer's instruction (FCCP600, Axis-Shield). Cross-reactivity was analyzed in human sera that were reactive to both cTNC56 or cTNC17 and cTNC5. Sera were diluted 1:100, incubated with 1, 10 and 100 μg/ml of peptides for 2 hours, centrifuged at 10,000 g for 10 min and the supernatant added to peptide-coated plates for analysis by ELISA as described above. Positivity was defined by the cut-off of the 98% percentile of healthy control samples from Autoantibody Cohort 1.
(An ELISA detects its analyte on a solid surface through an enzyme-linked reagent.)

The subject of experiment [3] is peripheral blood mononuclear cells (PBMC) from HLA-DRB1*04:01 positive subjects. Briefly: In vitro expansion of peptide-specific T cells and HLA class II tetramer staining. It is filed as cell-based, human. To be noted: two weeks of in vitro expansion, 10 μg/ml peptide. The procedure: Recombinant HLA-DRB1*04:01 protein was produced by the BRI Tetramer Core (Benaroya Research Institute, Seattle, WA) as previously described (Novak et al. 1999 J Clin Inv.104:R63). Soluble HLA-DRB1*04:01 monomer was purified from insect cell culture supernatants and biotinylated at a sequence-specific site using biotin ligase (Avidity) prior to dialysis into phosphate storage buffer. The biotinylated monomer was loaded with 0.2 mg/ml of peptide by incubating at 37° C. for 72 hours in the presence of 2.5 mg/ml n-octyl-β-D-glucopyranoside and 1 mM Pefabloc SC (Sigma-Aldrich). Peptide loaded monomers were conjugated into tetramers using fluorescently labeled streptavidin (Invitrogen) for 6-18 hours at room temperature at a molar ratio of 8:1.
Cryopreserved PBMCs from RA and healthy subjects were cultured at 5×10^6 cells/well in a 48 well plate in RPMI-1640+10% HPS with 10 μg/ml of peptide. IL-2 (Novartis) was added at 325 IU/ml on day 6. On day 14, cells were stained for expression of tetramer-PE, CD25 APC (BD) and CD4 FITC (BioLegend), and then characterized by immunocytofluorimetry on a FACSCanto™ (BD). The data were analyzed by FlowJo software version 10.

For experiment [4], the system named is CCP-reactive antibody (ACPA) pools from plasma and synovial fluid. The experiment can be described thus: Extracellular matrix peptide microarray with polyclonal CCP-pools. It is filed as binding, human. The note with it: ACPA pools at 15 μg/ml. The protocol:
The custom-made microarray was performed as previously described (Steen et al. 2019 Arthritis Rheumatol. 71:196). In brief, 16-aa long peptides that covered all arginine residues of 1,610 extracellular matrix proteins and RA related proteins were synthesized in situ (Roche NimbleGen). For tenascin C, there were a total of 217 peptides including both native and citrullinated variants of each peptide synthesized. Samples tested for reactivity against TNC derived peptides included synovial and plasma ACPA pools containing CCP-reactive antibodies from 26 and 38 RA patients, respectively (Ossipova et al. 2014 Arthritis Res Ther. 16:R167; Sahlström et al. 2020 Arthritis Rheumatol. 72:1643) Paired synovial fluid and serum samples from one RA patient taken at two time points 10 years apart were also screened. ACPA pools were run at a concentration of 15 μg/ml, whereas synovial fluid and plasma or serum samples were diluted 1/100 and tested for citrulline reactivity using a NimbleGen MS200 Scanner (Roche NimbleGen). A peptide signal intensity variation (spot size) of pixels was used as a basis for calculating the median fluorescence intensities. The cutoff for positive signals was defined as 5 times the fluorescence intensity of the 98th percentile of values for a set of monoclonal antibodies without citrulline reactivity. […]

Experiment [5] concerns the target T1, HLA-DRB1*04:01 (human).
T1 construct: MHC class II molecule; also called HLA-DR protein; recombinant HLA-DRB1*04:01 protein
The experiment can be described thus: peptide competition assay against biotinylated HA306-318.

Where no end group is shown, it is not given here. [ ]: non-standard residue; d: D form. Cit = NC(=O)NCCC[C@H](N)C(=O)O

Take “MP 97-116: influenza peptide used as positive control (VKLYRKLKREITFHGAKEIS; Matrix protein 1; UniProt P03485 97-116, looked up, fragment) [reference compound]”: in the experiment on memory CD4+ T cells, the “frequency of peptide-specific memory CD4+ T cells in RA compared to HC subjects” value is “did not differ between RA and HC subjects”.
On to “arg-TNC17: corresponding unmodified arginine-containing peptide of cit-TNC17 (VSLISRRGDMSSNPA)”, for which, in the experiment with HLA-DRB1*04:01 [1], the “binding to HLA-DRB1*04:01” value is listed as “did not”. Moreover, the “antibody reactivity relative to threshold for positivity” value in experiment [2] is given as “below the threshold for positivity in almost all subjects”.
Take “arg-TNC22: corresponding unmodified arginine-containing peptide of cit-TNC22 (FDRYRLNYSLPTGQW)”: in experiment [3], the “immunogenicity: epitope-specific T cell expansion by HLA Class II tetramer staining” value is recorded as “ability to elicit T cell responses”. Also, the “binding to HLA-DRB1*04:01” value in the experiment with HLA-DRB1*04:01 [1] was “bound”.
Consider “arg-TNC45: corresponding unmodified arginine-containing peptide of cit-TNC45 (PDGFRLSWTADEGVF)”, for which the “immunogenicity: epitope-specific T cell expansion by HLA Class II tetramer staining” value in experiment [3] is “ability to elicit T cell responses”. Further, the “binding to HLA-DRB1*04:01” value in the experiment with HLA-DRB1*04:01 [1] is “bound”.
As to “arg-TNC56: corresponding unmodified arginine-containing peptide of cit-TNC56 (QGQYELRVDLRDHGE)”, the “binding to HLA-DRB1*04:01” value with HLA-DRB1*04:01 [1] is “did not”. Besides, in experiment [2], the “antibody reactivity relative to threshold for positivity” value was “below the threshold for positivity in almost all subjects”.
“cit-TNC5: previously published citrullinated peptide from the C-terminal FBG domain of TNC, used as positive control (CEHSIQFAEMKL[Cit]PSNF[Cit]NLEG[Cit][Cit]KRC; not fully specified; cysteine pairing not given here) [reference compound]”: in experiment [2] (Autoantibody Cohort 1, HLA-DRB1*04:01 and CCP positive RA n=17), the “RA sera with antibodies to the peptide” value is on record as 47%. For the same molecule, the “antibody titers / reactivity in RA sera” value in experiment [2] (Autoantibody Cohort 1, sera diluted 1:100) is reported as “highest”. For the same molecule, in experiment [4], the “antibody reactivity in plasma CCP-pool” value is listed as “could be verified” and the “antibody reactivity in synovial fluid derived antibody pools” value is reported as “strong positive signal”.

B1: arg-TNC56 (peptide)
peptide: QGQYELRVDLRDHGE
modifications: not fully specified
notes: See note of arg-TNC17
For B1, in the experiment with HLA-DRB1*04:01 [5], the binding result is “no binding”.

B2: arg-TNC17 (peptide)
peptide: VSLISRRGDMSSNPA
modifications: not fully specified
Take B2: the binding result in the experiment with HLA-DRB1*04:01 [5] was “no binding”.
